Reference: publication PMC4079550 (Theriogenology, 2014)

Key:
murine testicular cells = test: Microscopic appearance of testicular cell cultures; assay type: cell-based, Sprague–Dawley rat; settings: 20 μM, over 72 hours, Figure 2
Sertoli cells = test: Anti-Mullerian hormone; assay type: cell-based, Sprague–Dawley rat; settings: 20 uM, after 24 and 48 hours of incubation; bright staining in control cultures
mouse fibroblasts = test: LDH release cytotoxicity experiment using mouse fibroblasts; assay type: cell-based; settings: at 72 hours, P<0.01 between the two
male C57/Bl6 mice [1] = test: Testicular histology after treatment in vivo; design: species or system mouse; settings: single dose, Bouin's fixative, Hematoxylin-Periodic acid Schiff's stain, Figure 3
male C57/Bl6 mice [2] = test: Effect on spermatogenesis in vivo; design: species or system mouse
male C57/Bl6 mice [3] = test: Systemic toxicity: complete blood counts and routine chemistries; assay type: in vivo, mouse; settings: melphalan alone 7.5 mg/kg ip once, data not shown
mice = settings: ref [24]; cited from earlier work
[4] = melphalan 7.5 mg/kg ip once on day 0, Week 4, n = 3 mice
[5] = melphalan 7.5 mg/kg ip once on day 0, Week 12, n = 3 mice

Row | Compound | Microscopic appearance of cultures compared to control cultures (murine testicular cells) | Staining for AMH (marker of Sertoli cells) (Sertoli cells) | LDH release (mouse fibroblasts) | Testis histology at four weeks (male C57/Bl6 mice [1]) | Daily Sperm Production/testis (male C57/Bl6 mice [2]; [4]) | Spermatids/Testis (male C57/Bl6 mice [2]; [4]) | Spermatids/mg of Tissue (male C57/Bl6 mice [2]; [4]) | Daily Sperm Production/testis (male C57/Bl6 mice [2]; [5]) | Spermatids/Testis (male C57/Bl6 mice [2]; [5]) | Spermatids/mg of Tissue (male C57/Bl6 mice [2]; [5]) | Lymphocytes count at 4 weeks (male C57/Bl6 mice [3]; 4 weeks) | Lymphocyte count at 12 weeks (male C57/Bl6 mice [3]; 12 weeks) | Increase of contraceptive efficacy by conjugation to FSHβ (mice)
1 | N[C@@H](Cc1ccc(N(CCCl)CCCl)cc1)C(=O)O [Melphalan] | marked cell death | very little | 20 % of maximal LDH release | Marked loss of spermatocytes and spermatids | 0.515±0.013 ×10^6 | 2.5±0.06 ×10^6 | 0.054±0.003 ×10^6 | 1.9±0.12 ×10^6 | 9.2±0.57 ×10^6 | 0.106±0.10 ×10^6 | slight, non-significant reduction | normal | –
2 | NNC(=O)c1nn(Cc2ccc(Cl)cc2Cl)c2ccccc12 [adjudin] | – | – | – | – | – | – | – | – | – | – | – | – | 10,000 fold
